These results are taken from US12239654B2, “Compounds and methods for treating neurological and cardiovascular conditions” (Astrocyte Pharmaceuticals, Inc., priority 2016, dated 2025).

Data set [1] in a line: Plasma binding determination by plasma ultrafiltration, mouse. Particulars: for fraction unbound at 60 min, 1 μM: male, CD-1, mouse, plasma. It counts as in vitro ADME. The method, then: (§1) Animals and Tissue Preparation: Plasma from male CD-1 mice was obtained from BioreclamationIVT (Westbury, NY) and stored at −80° C. until use. Male CD-1 mouse brains were obtained from BioreclamationIVT (Westbury, NY).
Plasma ultrafiltrate blank samples were prepared by thawing frozen plasma and then pre-warming plasma in a humidified 5% CO2 chamber at 37° C. for 60 minutes. Aliquots of 800 μL were transferred to Centrifree Centrifugal Filters (Ultracel regenerated cellulose (NMWL 30,000 amu) Lot R5JA31736) and centrifuged at 2900 RPM at 37° C. for 10 minutes; plasma water filtrates were collected and used in preparation of standards, blanks and QC standards.
Plasma samples were pre-warmed for 60 minutes in a humidified, 5% CO2 incubator maintained at 37° C. […] Spiked plasma samples were incubated on a rotary mixer in a humidified 5% CO2 chamber at 37° C. for a minimum of 60 minutes. After 60 minutes, three 800 μL aliquots of each sample were added to Centrifree centrifugal filters. The filters were subjected to centrifugation at 2900 rpm for 10 minutes at 37° C. Three 100 μL aliquots of residual plasma were collected along with ultrafiltrate for bioanalysis.
(§2) Plasma and brain concentrations of MRS4322 and MRS5698 in spiked plasma, brain homogenates and associated ultrafiltrates were determined by LC-MS/MS utilizing tolbutamide as an internal standard. […] The following tables outline the LC and MS/MS conditions employed (Tables 7 and 8).
(§3) For each tissue matrix, standard curves were created and LLOQ/ULOQ concentrations determined. The calibration range for the MRS4322 and MRS5698 plasma concentration standard curves was 400-1200 nM. The calibration range for MRS4322 and MRS5698 plasma ultrafiltrate standard curves was 100-1200 nM. The calibration range for MRS4322 brain homogenate and brain homogenate ultrafiltrate standard curves were 400-1200 nM and 100-1200 nM, respectively. The calibration range for MRS5698 brain homogenate and brain homogenate ultrafiltrate standard curves were 400-1200 nM and 1-500 nM, respectively.

A short description of data set [2]: Brain binding determination by brain homogenate ultrafiltration, mouse. To be noted: 37° C., ultrafiltration; for fraction unbound at 60 min, 1 μM: male, CD-1, mouse, brain homogenate, pH 7.4, mouse brain homogenate. The class given is in vitro ADME. The method, then: as §1
Brains were weighed and homogenized with 1:9 phosphate-buffered saline, pH 7.4 using an Omni tissue homogenizer. Brains from four mice were homogenized, pooled and mixed to form one sample.
Pooled homogenized brains were pre-warmed for 60 minutes in a humidified, 5% CO2 incubator maintained at 37° C. […] Spiked pooled brain homogenates were placed on a Nutator mixer in a humidified, 5% CO2 incubator at 37° C. for 60 minutes. After 60 minutes, three 800 μL aliquots of each sample were added to Centrifree centrifugal filters. The filters were subjected to centrifugation at 2900 rpm for 10 minutes at 37° C. Aliquots of residual brain homogenate and ultrafiltrate were collected for bioanalysis.
as §2, §3

Data set [3] addresses T1, mouse A3 adenosine receptor (Mus musculus, UniProt Q61618).
T1 construct: expressed in transfected cells; whole cells for cAMP
T1 sequence (Q61618 1-319): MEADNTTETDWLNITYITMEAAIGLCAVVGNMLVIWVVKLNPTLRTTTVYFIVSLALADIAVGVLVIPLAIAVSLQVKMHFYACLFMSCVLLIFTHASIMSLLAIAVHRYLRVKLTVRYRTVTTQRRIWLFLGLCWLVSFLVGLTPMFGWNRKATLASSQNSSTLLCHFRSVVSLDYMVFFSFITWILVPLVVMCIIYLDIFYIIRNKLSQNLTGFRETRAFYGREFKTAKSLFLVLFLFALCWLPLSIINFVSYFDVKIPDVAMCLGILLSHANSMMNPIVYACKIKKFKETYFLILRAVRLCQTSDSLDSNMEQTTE
The data set can be described thus: Competition binding versus [^3H]NECA at mouse A3 receptors expressed in CHO cells.

Data set [4] in a line: Pharmacokinetics of MRS4322 following intraperitoneal administration of MRS2365 to mice. It counts as in vivo. Particulars: for Plasma Concentration Mean / Plasma Concentration by Subject / Brain Concentration Mean / Brain Concentration by Subject: analyte MRS4322, mice, MRS2365 0.24 mg/kg ip; for Plasma Concentration by Subject / Brain Concentration by Subject: subjects A-C. The procedure:
Animals: Female C576BL/6J mice weighing approximately 0.02 Kg were used for this study, supplied by the University of Texas Health Sciences Center (San Antonio, TX). All studies were conducted under approved University of Texas Health Sciences Center IACUC protocols.
Drug Administration: MRS2365 was solubilized in phosphate-buffered saline and then diluted in phosphate-buffered saline to prepare dosing solution. Final dosing solution concentration of MRS2365 was 100 μM. A 100 μL volume of dosing solution was administered intraperitoneally to each mouse per 20 gram body weight; MRS2365 was administered intraperitoneally at 0.5 μmol/kg or 0.24 mg/kg. Three mice were administered MRS2365 for each sampling timepoint.
Tissue Sampling: Blood and brain samples were obtained at 0, 0.083, 0.25, 0.5, 1, 2 and 8 hours post-dose. At each timepoint, mice (3/timepoint) were euthanized in a […] chamber. Whole blood was obtained by cardiac puncture into Microtainer tubes containing heparin and immediately centrifuged for preparation of plasma; plasma was stored at −80° C. At each timepoint, whole brain samples were obtained by decapitation, rinsed in ice-cold phosphate-buffered saline and weighed. Brain samples were then immediately flash-frozen in liquid nitrogen and stored at −80° C.
The following table outlines the LC and MS/MS conditions employed:
The calibration range for the MRS4322 plasma concentration standard curve was 2.26-241 ng/mL. The calibration range for MRS4322 brain concentrations was 2.35-242 ng/mL.
For bioanalysis of brain concentrations of MRS4322, brain samples were homogenized in ice-cold phosphate-buffered saline in a 4× dilution. Aliquots of the resulting diluted brain homogenate were treated with acetonitrile and analyzed by LC-MS/MS. Because of the 4× homogenate dilution, the calibration range of the MRS4322 brain standard curve was translated to 9.40-968 ng/gm. In several samples, MRS4322 were detectable but fell below the brain LLOQ of 9.40 ng/gm but were above background; in these cases the final reported brain concentration was extrapolated based on MS peak heights.

Setting [5] is: mouse plasma, 1 μM, 37° C., ultrafiltration, read-out: Fraction Unbound Mean.
Where [6] appears, read: read-out: Fraction Unbound Mean.

As to `CNC(=O)[C@H]1O[C@@H](n2cnc3c(NCc4cccc(I)c4)nc(Cl)nc32)[C@H](O)[C@@H]1O` [Cl-IB-MECA, 2-Chloro-N^6-(3-iodobenzyl)-adenosine-5′-N-methyluronamide, reference compound], the fraction unbound at 60 min, 1 μM in data set [1] (setting [5]) and in data set [2] (setting [6]) was 0.002 in each case. Moreover, the “difference in affinity of Cl-IB-MECA and MRS4322 at mouse A3 receptor” value in data set [3] (Cl-IB-MECA vs MRS4322) was “approximately 25,000 fold”.

`CSc1nc(N)c2ncn([C@H]3[C@H](O)[C@H](O)[C@]4(COP(=O)(O)OP(=O)(O)O)C[C@H]34)c2n1` [MRS2365]: the “metabolism following intraperitoneal administration to mice” value in data set [4] (MRS2365 0.5 μmol/kg ip, comparison with equimolar MRS4322) was “rapidly and completely metabolized to MRS4322”.

On to `CSc1nc(N)c2ncn([C@H]3[C@H](O)[C@H](O)[C@]4(CO)C[C@H]34)c2n1` [MRS4322], for which the “Plasma Concentration Mean” value in data set [4] (0 h) and in data set [4] (8 h) was “BLQ” throughout. Further, the “Plasma Concentration by Subject” value in data set [4] (0 h) and in data set [4] (8 h) was “BLQ” each time. Moreover, the “Brain Concentration Mean” value in data set [4] (0.083 h), in data set [4] (1 h), in data set [4] (2 h) and in data set [4] (8 h) was “BLQ” each time. For the same molecule, the “Brain Concentration by Subject” value in data set [4] (0.083 h), in data set [4] (1 h), in data set [4] (2 h) and in data set [4] (8 h) was “BLQ” in each case. Further, the Kp in data set [4] (female, C57BL/6J, mouse, MRS4322 after MRS2365 ip to mice, based on mean Cmax concentrations in plasma and brain, read-out: brain/plasma ratio of total drug) is around 0.1. In addition, the fraction unbound at 60 min, 1 μM was 0.742 in data set [1] (mouse plasma, 1 μM, 37° C., ultrafiltration, read-out: % Bound Mean (converted)); 0.742 in data set [1] (setting [5]); 0.13 in data set [2] (read-out: % Bound Mean (converted)); 0.13 in data set [2] (setting [6]). In data set [1] (mouse models, from unbound fractions in plasma and brain), the “fraction available to interact with the A3 receptor relative to Cl-IB-MECA” value is “at least 1000 fold”. In addition, the “Fraction Unbound Mean” value in data set [1] (mouse plasma, 1 μM, 37° C., ultrafiltration) came out at 0.74; in data set [2] (mouse brain homogenate, 1 μM), 0.130. For the same molecule, the “% Bound Mean” value in data set [2] (mouse brain homogenate, 1 μM) came to 87.0%. Further, in data set [3] (read-out: Ki ± SEM, Mouse A3R, [^3H]NECA, CHO cell membrane preparations, [^3H]NECA (10 nM)), the Ki was determined as 4.94 ± 0.974 µM.
